According to patent publication US20240368150A1 (Hoffmann-La Roche Inc., priority 2021, published 2024):
Where two headings read alike, the source gives them in different places.

How the values were obtained:
[1] = tested on: primary human T-cells; test: Proliferation assay after 5 days (CellTiter-Glo, CD3 stimulation; PBS counter screen); assay type: cell-based; conditions: CD3 stimulation; for Emax: read-out: Emax proliferation (% activation); for EC50: primary human T-cells, CellTiter-Glo after 5 days, EC50 of fitted sigmoidal curve, read-out: Tcell Proliferation CD3 EC50
Outline: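 Proliferation is measured 5 days post-treatment as ATP-dependent luminescence. Flags mark compounds that activated unstimulated cells or harmed viability.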

[2] = tested on: MV-3 cells; test: T-cell - TCB - MV3 killing assay (MCSP-TCB, RFP object count by Incucyte); assay type: cell-based, human
[3] = tested on: primary human T-cells
[4] = Homo sapiens, T-cell, 120 h, 5 days, normalized to reference compound A1 as stimulator control = 100%, DMSO neutral control
[5] = primary human T-cells + MCSP-TCB, MV-3 RFP cells, 5 d; read-out: MSCP TCB killing MV-3 cells 5 d EC50
[6] = Homo sapiens, MV-3, 120 h, normalized: MCSP-TCB only = neutral control, 20 μM reference compound A1 = 100%; 5 d; read-out: MSCP TCB killing MV-3 cells 5 d Emax
[7] = Homo sapiens, MV-3, 120 h, primary human T-cells + MCSP-TCB, MV-3 RFP cells, 5 d; read-out: MSCP TCB killing MV-3 cells 5 d EC50

Row | Molecule | Emax [1, 4] [%] | EC50 [2, 5] [nM] | EC50 [3] [nM] | Emax [2, 6] [%] | EC50 ([1]; Homo sapiens, T-cell, 120 h) [nM] | other results
1 | CC(C)(C)c1nnc(-c2cc3c(cc2F)[S+]([O-])C[C@H](N)C(=O)N3Cc2ccc(Cl)cc2)o1 (stereo partly drawn) [Example 186, (3R)-3-amino-7-(5-tert-butyl-1,3,4-oxadiazol-2-yl)-5-[(4-chlorophenyl)methyl]-8-fluoro-1-oxo-2,3-dihydro-1λ^4,5-benzothiazepin-4-one] | 94 | 130 | 158 |  |  | EC50 [1]: 710 nM; MSCP TCB killing MV-3 cells 5 d Emax ([2]; normalized: MCSP-TCB only = neutral control, 20 μM reference compound A1 = 100%; 5 d): 100%
2 | N[C@H]1C[S+]([O-])c2cc(F)c(-c3noc(N4CCOC5(CC5)C4)n3)cc2N(Cc2ccc(Cl)cc2)C1=O (single isomer, unassigned; epimer a) [Example 211] |  |  | 793 | 86 |  | EC50 [1]: 326 nM; EC50 [2, 7]: 45 nM
3 | CC(C)(C)c1nnc(-c2cc3c(cc2F)S(=O)(=O)C[C@H](N)C(=O)N3Cc2ccc(C#N)cc2)o1 [Example 220, 4-[[(3R)-3-amino-7-(5-tert-butyl-1,3,4-oxadiazol-2-yl)-8-fluoro-1,1,4-trioxo-2,3-dihydro-1λ^6,5-benzothiazepin-5-yl]methyl]benzonitrile] | 102 |  | 238 |  |  | EC50 ([1]; T-cell, 120 h): 564 nM; Emax ([2]; Homo sapiens, MV-3, 120 h, read-out: MSCP TCB killing MV-3 cells 5 d Emax): 100%; EC50 ([2]; read-out: MSCP TCB killing MV-3 cells 5 d EC50; primary human T-cells + MCSP-TCB, MV-3 RFP cells, 5 d): 390 nM
4 | N[C@H]1CS(=O)(=O)c2cc(F)c(-c3nnc(NC4CCC(F)(F)C4)o3)cc2N(Cc2ccc(Cl)cc2)C1=O (stereo partly drawn) [Example 456, (3R)-3-amino-5-[(4-chlorophenyl)methyl]-7-[5-[(3,3-difluorocyclopentyl)amino]-1,3,4-oxadiazol-2-yl]-8-fluoro-1,1-dioxo-2,3-dihydro-1λ^6,5-benzothiazepin-4-one] | 99 | 770 | 607 | 94 | 1260 | 
5 | N[C@H]1CS(=O)(=O)c2ccc(-c3nnc(N4CCOC(F)(F)C4)o3)cc2N(Cc2ccc(Cl)cc2)C1=O [Example 391, (3R)-3-amino-5-[(4-chlorophenyl)methyl]-7-[5-(2,2-difluoromorpholin-4-yl)-1,3,4-oxadiazol-2-yl]-1,1-dioxo-2,3-dihydro-1λ^6,5-benzothiazepin-4-one] | 157 |  | 284 | 100 | 207 | EC50 [2, 7]: 70 nM
6 | CCc1nnn(-c2cc3c(cc2F)S(=O)(=O)C[C@H](N)C(=O)N3Cc2ccc(Cl)cc2)n1 [Example 509, (3R)-3-amino-5-[(4-chlorophenyl)methyl]-7-(5-ethyltetrazol-2-yl)-8-fluoro-1,1-dioxo-2,3-dihydro-1λ^6,5-benzothiazepin-4-one] | 122 | 190 | 290 | 94 | 158 | 
7 | CC(C)(C)c1nnc(-c2cc3c(cc2F)SC[C@H](N)C(=O)N3Cc2ccc(OC(F)(F)F)cc2)o1 [Example 54, (3R)-3-amino-7-(5-tert-butyl-1,3,4-oxadiazol-2-yl)-8-fluoro-5-[[4-(trifluoromethoxy)phenyl]methyl]-2,3-dihydro-1,5-benzothiazepin-4-one] | 116 |  |  | 123 | 1120 | EC50 [2, 7]: 300 nM
8 | CC(C)(C)n1nnc(-c2cc3c(cc2F)S(=O)(=O)C[C@H](N)C(=O)N3Cc2ccc(Cl)cc2)n1 [Example 8, (3R)-3-amino-7-(2-tert-butyltetrazol-5-yl)-5-[(4-chlorophenyl)methyl]-8-fluoro-1,1-dioxo-2,3-dihydro-1λ^6,5-benzothiazepin-4-one] | 130 |  | 93.8 | 96 | 84.5 | EC50 [2, 7]: 70 nM
9 | Cc1cc2c(cc1-c1nnc(C(C)(C)C)o1)N(Cc1ccc(Cl)cc1)C(=O)[C@@H](N)CS2(=O)=O [Example 272, (3R)-3-amino-7-(5-tert-butyl-1,3,4-oxadiazol-2-yl)-5-[(4-chlorophenyl)methyl]-8-methyl-1,1-dioxo-2,3-dihydro-1λ^6,5-benzothiazepin-4-one] | 102 | 1090 | 1700 | 100 | 790 | 
10 | N[C@H]1CS(=O)(=O)c2cc(F)c(-c3nnc(C4CCCC(F)(F)C4)o3)cc2N(Cc2ccc(Cl)cc2)C1=O (stereo partly drawn) [Example 91, (3R)-3-amino-5-[(4-chlorophenyl)methyl]-7-[5-(3,3-difluorocyclohexyl)-1,3,4-oxadiazol-2-yl]-8-fluoro-1,1-dioxo-2,3-dihydro-1λ^6,5-benzothiazepin-4-one] | 139 | 20 | 34.1 | 93 | 125 | 
11 | CC1(Nc2nnc(-c3cc4c(cc3F)S(=O)(=O)C[C@H](N)C(=O)N4Cc3ccc(Cl)cc3)o2)CC(F)(F)C1 [Example 461, (3R)-3-amino-5-[(4-chlorophenyl)methyl]-7-[5-[(3,3-difluoro-1-methyl-cyclobutyl)amino]-1,3,4-oxadiazol-2-yl]-8-fluoro-1,1-dioxo-2,3-dihydro-1λ^6,5-benzothiazepin-4-one] | 106 | 310 | 455 | 91 | 395 | 
12 | CCc1noc(-c2cc3c(cc2F)S(=O)(=O)C[C@H](N)C(=O)N3Cc2ccc(Cl)cc2)n1 [Example 41, (3R)-3-Amino-5-[(4-chlorophenyl)methyl]-7-(3-ethyl-1,2,4-oxadiazol-5-yl)-8-fluoro-1,1-dioxo-2,3-dihydro-1λ^6,5-benzothiazepin-4-one] | 61 | 230 |  | 92 | 9360 | 
13 | N[C@H]1CS(=O)(=O)c2cc(F)c(-c3nnc(CC(F)(F)F)o3)cc2N(Cc2ccc(OC(F)(F)F)cc2)C1=O [Example 56, (3R)-3-Amino-8-fluoro-1,1-dioxo-7-[5-(2,2,2-trifluoroethyl)-1,3,4-oxadiazol-2-yl]-5-[[4-(trifluoromethoxy)phenyl]methyl]-2,3-dihydro-1λ^6,5-benzothiazepin-4-one] | 136 | 110 |  | 123 | 414 | 
14 | N[C@H]1CS(=O)(=O)c2ccc(-c3nnc(N4CC5(CCCOC5)C4)o3)cc2N(Cc2ccc(Cl)cc2)C1=O [Example 405, (3R)-3-amino-5-[(4-chlorophenyl)methyl]-7-[5-(6-oxa-2-azaspiro[3.5]nonan-2-yl)-1,3,4-oxadiazol-2-yl]-1,1-dioxo-2,3-dihydro-1λ^6,5-benzothiazepin-4-one] | 86 |  | 1320 |  | 1080 | 
15 | CC(O)(CNC(=O)c1nc(-c2cc3c(cc2F)S(=O)(=O)C[C@H](N)C(=O)N3Cc2ccc(Cl)cc2)no1)C(F)(F)F (stereo partly drawn) [Example 301, 3-[(3R)-3-amino-5-[(4-chlorophenyl)methyl]-8-fluoro-1,1,4-trioxo-2,3-dihydro-1λ^6,5-benzothiazepin-7-yl]-N-(3,3,3-trifluoro-2-hydroxy-2-methyl-propyl)-1,2,4-oxadiazole-5-carboxamide] | 93 |  | 6140 |  | 2440 | 
16 | CNC(=O)N1CCC(C)(c2nc(-c3cc4c(cc3F)S(=O)(=O)C[C@H](N)C(=O)N4Cc3ccc(Cl)cc3)no2)CC1 [Example 304, 4-[3-[(3R)-3-amino-5-[(4-chlorophenyl)methyl]-8-fluoro-1,1,4-trioxo-2,3-dihydro-1λ^6,5-benzothiazepin-7-yl]-1,2,4-oxadiazol-5-yl]-N,4-dimethyl-piperidine-1-carboxamide] | 61 |  | 8140 |  | 7490 | 
17 | CC(C)(C)c1nnc(-c2ccc3c(c2)N(Cc2ccc(N4CCN(C5CC5)CC4)cc2)C(=O)[C@@H](N)CS3(=O)=O)o1 [Example 445, (3R)-3-amino-7-(5-tert-butyl-1,3,4-oxadiazol-2-yl)-5-[[4-(4-cyclopropylpiperazin-1-yl)phenyl]methyl]-1,1-dioxo-2,3-dihydro-1λ^6,5-benzothiazepin-4-one] | 88 |  | 9560 |  | 4250 | 
18 | (3R)-3-amino-5-[(4-chlorophenyl)methyl]-7-[5-(2,2-difluoromorpholin-4-yl)-1,3,4-oxadiazol-2-yl]-1,1-dioxo-2,3-dihydro-1λ^6,5-benzothiazepin-4-one [Example 413] |  |  | 1080 |  |  | Emax proliferation (% activation) ([1]; 5 days, normalized to reference compound A1 as stimulator control = 100%, DMSO neutral control): 160 % activation; EC50 [1]: 193 nM
19 | COC(F)(c1nc(-c2cc3c(cc2F)S(=O)(=O)C[C@H](N)C(=O)N3Cc2ccccc2)no1)C(F)(F)F (stereo partly drawn) [Example 351, (3R)-3-amino-5-benzyl-8-fluoro-1,1-dioxo-7-[5-(1,2,2,2-tetrafluoro-1-methoxy-ethyl)-1,2,4-oxadiazol-3-yl]-2,3-dihydro-1λ^6,5-benzothiazepin-4-one] | 107 |  | 288 |  | 113 | 
